Experimental data published in US20070128217A1 (priority 2003, published 2007).

How the values were obtained:
[1] = test system: control sera (pooled serum of ten healthy LUMC hospital workers; commercial negative donor pooled serum from the Dutch bloodbank); assay type: binding, human; design: Binding of Control serum LUMC to linear peptides / Binding of Control serum Blood-bank to linear peptides / Binding of Control serum LUMC to looped peptides / Binding of Control Serum Blood-Bank to Looped peptides / Binding of Control serum LUMC to linear peptides of the protein M of SARS-CoV Urbani / Binding of Control serum Blood-bank to linear peptides of the protein M of SARS-CoV Urbani / Binding of Control serum LUMC to looped peptides of the protein M of SARS-CoV Urbani / Binding of Control Serum Blood-Bank to Looped peptides of the protein M of SARS-CoV Urbani: unit not given here
[2] = test system: rabbit serum obtained by immunizing a rabbit with the SARS-CoV strain Frankfurt 1; assay type: binding; design: Binding of a rabbit serum to linear peptides / Binding of a rabbit serum to looped peptides / Rabbit serum linear peptides / Rabbit serum looped peptides / Binding of a rabbit serum to linear peptides of protein N of SARS-CoV Urbani (Rabbit serum linear peptides) / Binding of a rabbit serum to looped/cyclic peptides of protein N of SARS-CoV Urbani (Rabbit serum looped peptides): unit not given here
[3] = test system: antibodies in sera from SARS patients (sera 1a, 1b, 2, 6, 37, 62, London, SARS-yellow, SARS-green); assay type: binding, human; design: Binding of serum 6 to linear peptides of protein X1 of SARS-CoV Urbani / Binding of serum 37 to linear peptides of protein X1 of SARS-CoV Urbani / Binding of serum 6 to looped/cyclic peptide (PEPSCAN-ELISA) / Binding of serum 37 to looped/cyclic peptide (PEPSCAN-ELISA) / Binding of serum 37 to looped/cyclic peptides of protein X1 of SARS-CoV Urbani / Binding of serum 6 to linear peptides of protein X2 / Binding of serum 37 to linear peptides of protein X2 / Binding of serum 37 to looped/cyclic peptides of protein X2 of SARS-CoV Urbani / Binding of serum 6 to linear peptides of protein M of SARS-CoV Urbani / Binding of serum 37 to linear peptides of protein M of SARS-CoV Urbani / Binding of serum 6 to looped/cyclic peptides of protein M of SARS-CoV Urbani / Binding of serum 37 to looped/cyclic peptides of protein M of SARS-CoV Urbani / Binding of serum 6 to linear peptides of protein X3 of SARS-CoV Urbani / Binding of serum 37 to linear peptides of protein X3 of SARS-CoV Urbani / Binding of serum 37 to looped/cyclic peptides of protein X3 of SARS-CoV Urbani / Binding of serum 6 to linear peptides of protein X4 of SARS-CoV Urbani / Binding of serum 37 to linear peptides of protein X4 of SARS-CoV Urbani / Binding of serum 37 to looped/cyclic peptides of protein X4 of SARS-CoV Urbani / Binding of serum 6 to linear peptides of protein X5 of SARS-CoV Urbani / Binding of serum 37 to linear peptides of protein X5 of SARS-CoV Urbani / Binding of serum 37 to looped/cyclic peptides of protein X5 of SARS-CoV Urbani / Binding of serum 6 to linear peptides of protein N of SARS-CoV Urbani / Binding of serum 37 to linear peptides of protein N of SARS-CoV Urbani / Binding of serum 6 to linear peptide (PEPSCAN-ELISA) / Binding of serum 1a to looped/cyclic peptides of protein N of SARS-CoV Urbani / Binding of serum 1b to looped/cyclic peptides of protein N of SARS-CoV Urbani / Binding of serum 2 to looped/cyclic peptides of protein N of SARS-CoV Urbani / Binding of serum 6 to looped/cyclic peptides of protein N of SARS-CoV Urbani / Binding of serum 37 to looped/cyclic peptides of protein N of SARS-CoV Urbani / Binding of serum 62 to looped/cyclic peptides of protein N of SARS-CoV Urbani / Binding of serum London to looped/cyclic peptides of protein N of SARS-CoV Urbani / Binding of serum SARS-green to looped/cyclic peptides of protein N of SARS-CoV Urbani: unit not given here

Sequence: KHKKVSTNLCTHSFR
- Binding of Control Serum Blood-Bank to Looped peptides [1]: 0.5
- Binding of Control serum Blood-bank to linear peptides [1]: 0.9
- Binding of Control serum LUMC to linear peptides [1]: 0.6
- Binding of Control serum LUMC to looped peptides [1]: 0.7
- Binding of a rabbit serum to linear peptides [2]: 0.4
- Binding of a rabbit serum to looped peptides [2]: 0.0
- Binding of serum 1a to looped/cyclic peptides of protein X2 of SARS-CoV Urbani [3]: 0.5
- Binding of serum 1b to looped/cyclic peptides of protein X2 of SARS-CoV Urbani [3]: 0.0
- Binding of serum 2 to looped/cyclic peptides of protein X2 of SARS-CoV Urbani [3]: 0.7
- Binding of serum 6 to looped/cyclic peptides of protein X2 of SARS-CoV Urbani [3]: 0.4
- Binding of serum 37 to looped/cyclic peptides of protein X2 of SARS-CoV Urbani [3]: 0.2
- Binding of serum 62 to looped/cyclic peptides of protein X2 of SARS-CoV Urbani [3]: 0.4
- Binding of serum London to looped/cyclic peptides of protein X2 of SARS-CoV Urbani [3]: 0.1
- Binding of serum SARS-green to looped/cyclic peptides of protein X2 of SARS-CoV Urbani [3]: 0.3
- Binding of serum SARS-yellow to looped/cyclic peptides of protein X2 of SARS-CoV Urbani [3]: 0.1
- Recognition of the peptide by sera of SARS-CoV infected individuals, and form (linear, looped/cyclic) in which it is recognized [3]: recognized in linear form

Sequence: VASFRLFARTRSMWS
- Binding of Control Serum Blood-Bank to Looped peptides of the protein M of SARS-CoV Urbani [1]: 0.8
- Binding of Control serum Blood-bank to linear peptides of the protein M of SARS-CoV Urbani [1]: 0.7
- Binding of Control serum LUMC to linear peptides of the protein M of SARS-CoV Urbani [1]: 0.4
- Binding of Control serum LUMC to looped peptides of the protein M of SARS-CoV Urbani [1]: 0.6
- Rabbit serum linear peptides [2]: 0.8
- Rabbit serum looped peptides [2]: 0.4
- Binding of serum 1a to linear peptides of protein M of SARS-CoV Urbani [3]: 0.7
- Binding of serum 1b to linear peptides of protein M of SARS-CoV Urbani [3]: 0.5
- Binding of serum 2 to linear peptides of protein M of SARS-CoV Urbani [3]: 0.5
- Binding of serum 6 to linear peptides of protein M of SARS-CoV Urbani [3]: 0.3
- Binding of serum 37 to linear peptides of protein M of SARS-CoV Urbani [3]: 0.7
- Binding of serum 62 to linear peptides of protein M of SARS-CoV Urbani [3]: 0.8
- Binding of serum London to linear peptides of protein M of SARS-CoV Urbani [3]: 0.3
- Binding of serum SARS-green to linear peptides of protein M of SARS-CoV Urbani [3]: 0.3
- Binding of serum SARS-yellow to linear peptides of protein M of SARS-CoV Urbani [3]: 0.0
- Recognition of the peptide by sera of SARS-CoV infected individuals, and form (linear, looped/cyclic) in which it is recognized [3]: recognized in looped/cyclic form

Sequence: IILFLTLIVFTSCEL
- Binding of Control Serum Blood-Bank to Looped peptides [1]: 0.7
- Binding of Control serum Blood-bank to linear peptides [1]: 0.7
- Binding of Control serum LUMC to linear peptides [1]: 0.9
- Binding of Control serum LUMC to looped peptides [1]: 0.6
- Rabbit serum linear peptides [2]: 0.8
- Rabbit serum looped peptides [2]: 0.5
- Binding of serum 1a to linear peptides of protein X4 of SARS-CoV Urbani [3]: 0.8
- Binding of serum 1a to looped/cyclic peptides of protein X4 of SARS-CoV Urbani [3]: 0.7
- Binding of serum 1b to linear peptides of protein X4 of SARS-CoV Urbani [3]: 0.8
- Binding of serum 1b to looped/cyclic peptides of protein X4 of SARS-CoV Urbani [3]: 0.1
- Binding of serum 2 to linear peptides of protein X4 of SARS-CoV Urbani [3]: 0.6
- Binding of serum 2 to looped/cyclic peptides of protein X4 of SARS-CoV Urbani [3]: 0.6
- Binding of serum 6 to linear peptides of protein X4 of SARS-CoV Urbani [3]: 0.5
- Binding of serum 6 to looped/cyclic peptides of protein X4 of SARS-CoV Urbani [3]: 0.5
- Binding of serum 37 to linear peptides of protein X4 of SARS-CoV Urbani [3]: 0.9
- Binding of serum 37 to looped/cyclic peptides of protein X4 of SARS-CoV Urbani [3]: 0.7
- Binding of serum 62 to linear peptides of protein X4 of SARS-CoV Urbani [3]: 0.8
- Binding of serum 62 to looped/cyclic peptides of protein X4 of SARS-CoV Urbani [3]: 0.7
- Binding of serum London to linear peptides of protein X4 of SARS-CoV Urbani [3]: 0.7
- Binding of serum London to looped/cyclic peptides of protein X4 of SARS-CoV Urbani [3]: 0.2
- Binding of serum SARS-green to linear peptides of protein X4 of SARS-CoV Urbani [3]: 0.6
- Binding of serum SARS-green to looped/cyclic peptides of protein X4 of SARS-CoV Urbani [3]: 0.4
- Binding of serum SARS-yellow to linear peptides of protein X4 of SARS-CoV Urbani [3]: 0.7
- Binding of serum SARS-yellow to looped/cyclic peptides of protein X4 of SARS-CoV Urbani [3]: 0.6
